Measurements as given in patent publication US20240116971A1, “NMN AND DERIVATIVES FOR ITS USE IN THE TREATMENT OF DEPRESSION AND/OR ANXIETY IN PATIENTS HAVING A FORM OF PARKINSONISM” (Nuvamid SA, priority 2021, published 2024).

Experiments:
Assay type in all cases: in vivo, human
MSA patients [1] = assay: Safety of NMN dietary supplement: hemodynamic, blood count, inflammatory, liver, kidney, cardiac/muscular, metabolic parameters, adverse events
Method: The purpose of the multicentric, prospective, non-randomised, non-controlled pilot study is to study the efficacy of NMN administration in MSA patients (45-80 years old) at a larger scale. In this study, the safety, tolerance and efficacy of a dose of NMN are evaluated. The amount of NMN to be ingested daily is divided into 2 capsules (Size 0). Each patient takes 2 capsules/day in the morning during breakfast with a big glass of water. The composition of each capsule is as follows:
The main objectives of the study are to evaluate the safety of the dietary supplement during a 12-week supplementation. The safety of the food supplement is assessed in terms of: • a) Hemodynamic parameters: • Blood pressure (systolic and diastolic arterial pressure (SAP, DAP) standing up and lying down (2 min)), • Heart rate (HR, standing up/lying down (2 min)). • b) Blood Formula Counting: • Hematies, • Leukocytes (lymphocytes, monocytes, neutrophils, basophils, eosinophils), • Platelets. • c) Inflammatory parameters: • C Reactive Protein (CRP), • Sedimentation rate. • d) Liver function: • ASAT, • ALAT, • gamma GT, • Alkaline phosphatases. • e) Kidney function: • Creatinemia, • Urea. • Cardiac and muscular function: • Creatine Phosphokinase (CPK). • f) Metabolic/biochemical parameters: • lonogram (Na+, K+, Cl−), • glycated hemoglobin • g) Occurrence of undesirable effects.
48 hours before each follow-up visit by the neurological investigator, a nurse visits the patient's home to take blood samples and measure the hemodynamic parameters [SAP/DAP lying down, standing up (2 min) and HR lying down, standing up (2 min)]. In addition, during each visit, the possible occurrence of adverse events will be asked to patients. The nurse visits are scheduled between D-7 and D-2 to confirm the patient's inclusion, then at D13 (for visit V2 at D15), D43 (for visit V3 at D45) and D88 (for the end of study visit at D90). No fasting was required for the biologic assessments. To ensure the safety of the food supplement, all biological parameters must be within the limits of reference values and/or judged by the investigating physician as non-clinical.
Safety biology, pharmacokinetics and hemodynamic constants (D13; D43; D88): A blood sample is collected by a nurse at patient's home 48 hours before the visit to the investigational site (D13; D43 and D88) so that the investigator has the biological safety results on the day of the consultation.
The required bioassessment is the same as the inclusion one (D-2) and include: • Complete and differential Blood cells Counts, • Metabolic/biochemical parameters: lonogram (Na+, K+, Cl−), Glycated hemoglobin (HbA1C) • Inflammatory assessment: CRP, sedimentation rate, • Liver check-up: AST, ALT, gamma GT, ALP, bilirubin • Renal assessment: Creatinemia, urea, • Cardiac and muscular assessment: CPK;
Also, an aliquot of acidified whole blood is stored at the AML at −80° C. for the determination of NMN metabolites. The hemodynamic constants (BP and HR standing up/lying down) are taken and entered in the patient's follow-up notebook by the nurse. The nurse also questions the patient on the possible occurrence of adverse events and checks the patient's compliance with treatment by filling in his or her follow-up notebook and pill box. On receipt, the investigating physician check the results: the blood parameters must be within the reference value limits and/or judged by the investigating physician as not clinically relevant. Otherwise, the patient is summoned without delay by the investigating physician to leave the study prematurely.
At D90, the safety and tolerance of the study product is assessed by the investigating physician during the visits provided for in the protocol by means of an interview with the patient, information gathered by the volunteer in the daily diary, a clinical examination (including blood pressure and heart rate measurements) and a blood test. All patients continued to take their usual treatment for MSA.

MSA patients [2] = assay: Quality of life, MSA-QoL self-questionnaire; settings: for MSA-QoL non-motor subscore, average difference compared to V1: V1 30.4±10.0 points; for MSA-QoL Motor subscore, average difference compared to V1: V1 40.1±19.0 points
Source text: [table] At this visit, the investigator checks the patient's completed follow-up notebook (compliance, adverse event (AE), treatments) and carries out an interrogation and clinical examination, including the taking of standing and lying hemodynamic constants (SAP/DAP and HR) in order to check the tolerance and the possible occurrence of an adverse event. Compliance is also monitored. The patient is asked to complete a quality of life questionnaire (MSA-QoL). Quality of life—MSA—QoL: the MSA-QoL scale is organized into 4 subsections: • Motor sub-score: items 1 to 14; • Non-motor sub-score: items 15 to 26; • Emotional/social sub-score: items 27 to 40. • Overall satisfaction of quality of life of 100 mm to describe the patient's overall satisfaction with their life.

[3] = Blood level of NMN and NAD
Source text: The secondary objectives describe the characteristics of the patients who participated in the research, and aim at studying the pharmacokinetics of NMN in daily oral use and its impact on increasing NAD+ levels, and, in a preliminary way, at evaluating the potential benefits of NMN supplementation on the symptomatology related to multi-systemic atrophy syndrome MSA such as activities of daily living, motor disorders, orthostatic hypotension and autonomy using the validated […] scale. [table] Also, an aliquot of serum is stored at the laboratory at -80° C. for the determination of the patient's physiological NAD+ (Baseline) level by the promoter. The results are sent to the investigating responsible for checking these parameters (regarding the laboratory's standards) and validating or not the patient's eligibility. […] Also, an aliquot of acidified whole blood is stored at the AML at -80° C. for the determination of NMN metabolites. The hemodynamic constants (BP and HR standing up/lying down) are taken and entered in the patient's follow-up notebook by the nurse. The nurse also questions the patient on the possible occurrence of adverse events and checks the patient's compliance with treatment by filling in his or her follow-up notebook and pill box. On receipt, the investigating physician check the results: the blood parameters must be within the reference value limits and/or judged by the investigating physician as not clinically relevant. Otherwise, the patient is summoned without delay by the investigating physician to leave the study prematurely.

[4] = at 3 months, mITT and PP populations
[5] = mITT population, V3, p-value >0.05
[6] = mITT population, V4, p-value >0.05
[7] = 3-month supplementation with NMN (400 mg/day) per os, MSA patients, mITT and PP

## NC(=O)c1ccc[n+]([C@@H]2O[C@H](COP(=O)([O-])O)[C@@H](O)[C@H]2O)c1 [beta-NMN, nicotinamide mononucleotide]
MSA patients [1]; 3-month follow-up
  ionogram and glycated hemoglobin level: stable
MSA patients [1]; 3 months
  impact on liver function: does not thus have an impact
  induction of inflammation: does not thus induce inflammation
MSA patients [1]; 3 months of follow-up
  creatine phosphokinase: relatively stable
  liver parameters: relatively stable
  renal parameters: relatively stable
MSA patients [1]; 3 months of follow-up, within or outside reference values, not clinically relevant
  inflammatory parameters: relatively stable
MSA patients [1]; 3 months of follow-up, within reference limits or not clinically relevant
  blood count values: relatively stable
MSA patients [1]; MSA patients, 3 months
  safety and tolerance, conclusion: safe and well-tolerated
MSA patients [1]; NMN 400 mg/day, 3 months
  increase in average blood pressure and heart rate: does not thus lead to an increase
MSA patients [1]; NMN 400 mg/day, 3 months, V0-V4 comparison p-value=0.2969
  mean heart rate (HR): normal and stable over time
MSA patients [1]; NMN 400 mg/day, 3 months, V0-V4 comparison p-value=0.6172
  Mean systolic blood pressure: normal and stable over time
MSA patients [1]; NMN 400 mg/day, 3 months, V0-V4 comparison p-value=0.6719
  Mean diastolic blood pressure: normal and stable over time
MSA patients [1]; after 3 months of treatment
  concentration of electrolytes (Na+, K+, Cl−) and glycemia: does not affect
  impact on heart and muscle function: does not have an impact
MSA patients [2]; PP population, V3 and V4 compared to V1
  Overall satisfaction with quality of life, scaling: slight increase
MSA patients [2]; [4]
  MSA-QoL Emotional/Social sub-score: improvement
  MSA-QoL Motor subscore: improvement
  MSA-QoL non-motor subscore: improvement
MSA patients [2]; mITT population, V2, V3 and V4 compared to V1, p-value >0.05
  Overall satisfaction with quality of life, scaling: very slight decrease
MSA patients [2]; mITT population, V2, 0 to 48, higher is worse, p-value >0.05
  MSA-QoL non-motor subscore, average difference compared to V1: −2.0 points
MSA patients [2]; mITT population, V2, 0 to 56, higher is worse, p-value >0.05
  MSA-QoL Motor subscore, average difference compared to V1: −1.3 points
MSA patients [2]; [5]
  MSA-QoL non-motor subscore, average difference compared to V1: −5.2 points
  MSA-QoL Motor subscore, average difference compared to V1: −5.6 points
MSA patients [2]; [6]
  MSA-QoL non-motor subscore, average difference compared to V1: −4.1 points
  MSA-QoL Motor subscore, average difference compared to V1: −5.1 points
[3]; [7]
  blood levels of NAD: gradually increases
  blood levels of NMN: gradually increases
[3]; mITT population, V4 (n=8 subjects), NMN 400 mg/day per os, V1 16183.57±4205.09 (n=4 subjects)
  blood NAD level, mean value: 29194.12 ± 9706.95 ng/mL
